The nature of this series: Apparent intrinsic clearance in human liver microsomes. The series is classed as ADME, Microsome. The note with it: read-out: CLH(app). Background: Liver microsomes are vesicles of endoplasmic reticulum, rich in cytochrome P450 enzymes.

Bounds are passed on as bounds.

As to `CC[C@H](C)OC(=O)N1C2CC3CC1CC(C2)N3c1ncnc(Oc2cccnc2C)c1C`, the CLint scaled is more than 30 mL/min/kg.
